Columns and labels:
[1] = test system: collagen ɑ2(I) 5′SL mRNA (PC at C37); assay: Fluorescence measurement of the fluorescent ɑ2(I) 5′SL compound with test compound; type: binding, human; details: increasing drug concentrations; FIG. 5 bottom panel
Text: When the second fluorescent compound has the fluorophore PC at the C37 position of the collagen ɑ2(I) 5′ stem loop mRNA and the fluorescence intensity decreases when contacted with LARP6, this indicates binding of the second fluorescent compound to LARP6.
(§1) The fluorescence intensity of the 2AP and PC fluorophores depends on their environment in the RNA fold, and the environment changes upon LARP6 or test compound binding to the RNA. The increase in fluorescence is seen if a fluorophore rotates outwards from its position within the RNA. This was seen when LARP6 bound to the fluorescent ɑ1(I) 5′SL compound. The fluorescence decreases if a fluorophore is masked by the bound drug or LARP6.
(§2) Referring to FIG. 5, the fluorescence measurements were performed using epirubicin as the test compound or drug.

[2] = test system: collagen ɑ1(I) 5′SL mRNA (2AP at G10); assay: Fluorescence measurement of the fluorescent ɑ1(I) 5′SL compound with test compound; type: binding, human; details: test compound added in micromolar concentrations; FIG. 5 top panel
Text: When the first fluorescent compound has the fluorophore 2AP substituted at the G10 position of the collagen ɑ1(I) 5′ stem loop mRNA and the fluorescence intensity increases, this indicates the first fluorescent compound has bound to LARP6.
as §1, §2

[3] = test system: complex of recombinant LA-domain of LARP6 with 5′SL RNA; assay: Gel mobility shift assay of LA-domain/5′SL RNA complex; type: binding; details: FIG. 6 lanes 4 and 5
Text: FIG. 6 is a gel mobility shift assay showing free RNA (RNA) and complex of LA-domain bound to RNA (RNA/LA). Lane 1 contains RNA only. Lane 2 contains the RNA/LA complex in absence of the test compound. Lanes 3-5 show dissociation of RNA/LA complexes with the test compound.
The inhibitory effect of this test compound on LARP6 binding was directly tested by gel mobility shift experiments, the results of which are in FIG. 6. This assay confirms the formation of a protein/RNA complex by physically separating them from free RNA. Without the test compound, the recombinant LA-domain of LARP6 formed a complex with 5′SL RNA (FIG. 6, lane 2, RNA/LA). […] This proves that the fluorescent 5′SL RNA compounds can be used to identify molecules that interact with 5′SL RNA and that are competitors of LARP6 binding and may be antifibrotic drugs.

[4] = biological target: T1, recombinant LA-domain of LARP6 (Homo sapiens, UniProt Q9BRS8); assay: Fluorescence of the fluorescent ɑ2(I) 5′SL compound on LA-domain binding; details: increasing concentrations of recombinant LA-domain; FIG. 4
T1 construct: recombinant LA-domain of LARP6
T1 sequence (Q9BRS8 86-177 limits assumed): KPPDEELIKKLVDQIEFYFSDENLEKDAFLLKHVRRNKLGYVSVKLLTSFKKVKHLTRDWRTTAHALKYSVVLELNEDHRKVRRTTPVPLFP
Text: This compound was less bright because its fluorophore has an emission that is about 7-fold less intense than that of the fluorescent ɑ1(I) 5′SL compound.
(§3) The decrease in the excitation spectrum (left, measured at 450 nm emission) and the emission spectrum (right, measured at 340 nm excitation) with increasing concentrations of recombinant LA-domain is shown in FIG. 5.

[5] = biological target: T1, recombinant LA-domain of LARP6; assay: Fluorescence of the fluorescent ɑ1(I) 5′SL compound on LA-domain binding; details: saturating amounts of LA-domain vs free compound; p<0.0001; FIG. 3
Protocol: The increase resulted from flipping of the 2AP at the G10 position out of the fold. The increase in intensity of the excitation spectrum (left, measured at 370 nm emission) and the emission spectrum (right, measured at 310 nm excitation) were apparent when increasing concentrations of recombinant LA-domain of LARP6 were added to the sensor. The LA-domain is necessary and sufficient for 5′SL RNA recognition by LARP6 and recapitulates the full size LARP6 binding.
The increase in intensity of fluorescence emission with binding of the LA-domain was quantified by measuring the fluorescence of free fluorescent ɑ1(I) 5′SL compound and the same compound bound with saturating amounts of the LA-domain.
The intensity increased about 2-fold with statistical significance of p<0.0001.

LARP6 LA-domain = biological target: T2, LARP6 LA-domain (UniProt Q9BRS8 Q9BRS8:86-177); assay: pyrrolo-cytidine fluorescence decreases with increasing LA-domain; details: label: pyrrolo-cytidine at position 37; 5' stem-loop
T2 sequence: T1 sequence (Q9BRS8 86-177 limits assumed)
Text: as §3

COc1cccc2c1C(=O)c1c(O)c3c(c(O)c1C2=O)C[C@@](O)(C(=O)CO)C[C@@H]3O[C@H]1C[C@H](N)[C@@H](O)[C@H](C)O1 [epirubicin]
change of fluorescence intensity of the fluorescent ɑ2(I) 5′SL compound [1]: decrease in fluorescence with increasing drug concentrations | change of fluorescence intensity of the fluorescent ɑ1(I) 5′SL compound [2]: decreased in the concentration dependent manner | concentration of test compound at which formation of RNA/LA complex was diminished [3]: > 50 µM

fluorescent ɑ2(I) 5′SL compound: SEQ ID NO: 2 collagen ɑ2(I) 5′SL RNA with C37 nucleotide substituted with pyrrolo-cytidine (PC)
fluorescence response to LA-domain binding [4]: decreasing its fluorescence

fluorescent ɑ1(I) 5′SL compound: SEQ ID NO: 1 collagen ɑ1(I) 5′SL RNA with G10 nucleotide substituted with 2-amino-purine (2AP) (CCACAAAGAGUCUACAUGUCUAGGGUCUAGACAUGUUCAGCUUUGUGG; G10 replaced by 2-aminopurine; listed as Homo sapiens)
increase in intensity of fluorescent emission on binding of the LA-domain [5]: about 2 fold

CACAAGGAGUCUGCAUGUCUAAGUGCUAGACAUGCUCAGCUUUGUG (ssRNA, C37 substituted with pyrrolo-cytidine) [fluorescent collagen a2(I) 5'SL]
binding result (LARP6 LA-domain): binds

— patent US20230313296A1, “USING FLUORESCENT COLLAGEN α 1(I) AND α 2(I) mRNAs TO SCREEN DRUG CANDIDATES” (Florida State University Research Foundation, Inc., priority 2022, published 2023)
